Experimental data published in the PolyMetriX glass transition set.
± gives the standard deviation of the reports.

SMILES | glass transition temperature [°C]
*O[Si](C)(C)C#C[Si](C)(C)C#C[Si](C)(C)C#C[Si](C)(C)C#C[Si](*)(C)C (repeat unit) | -23.00
*OC1C(CO)OC(*)C(NC(C)=O)C1O (repeat unit) | 154.60
*CCCN(Cc1ccccc1)C(=O)S* (repeat unit) | 27.00
*CC(*)(C)C(=O)OC (repeat unit) [poly(methyl methacrylate)] | 108.92 ± 15
*c1ccc(*)c(C(=O)c2ccccc2)c1 (repeat unit) | 180.00
*C(=O)c1ccc2c(c1)C(=O)N(c1cc(Oc3c(C)cc(-c4cc(C)c(Oc5cc(N6C(=O)c7ccc(*)cc7C6=O)cc(C(F)(F)F)c5)c(C)c4)cc3C)cc(C(F)(F)F)c1)C2=O (repeat unit) | 265.40
*SCC(=O)N/N=C/c1ccc(OCCCCCCCCCCOc2ccc(/C=N/NC(=O)CSc3nnc(*)s3)cc2OC)c(OC)c1 (repeat unit) | 156.00
*COC(=O)OCC1OC(OCC)OC1* (repeat unit) | 23.50
*CCOC(=O)NCCCCCCCCCNC(=O)O* (repeat unit) | 44.00
*Oc1c(Cl)cc(C2(c3cc(Cl)c(OC(*)=O)c(Cl)c3)CC3CCC2C3)cc1Cl (repeat unit) | 290.00
*CC(*)C(=O)OCCSCCCC#N (repeat unit) | -58.00
*CC(*)c1ccc(C)cc1C (repeat unit) [Poly(2,4-dimethyl styrene) ] | 112 ± 0.6
*C(=O)NCCCCCCNC(=O)c1ncn(C)c1* (repeat unit) | 86.00
*c1ccc2c(c1)C(=O)N(c1cc(C(=O)Oc3ccc(C(c4ccc(OC(=O)c5ccc(C)c(N6C(=O)c7ccc(C(*)(C(F)(F)F)C(F)(F)F)cc7C6=O)c5)cc4)(C(F)(F)F)C(F)(F)F)cc3)ccc1C)C2=O (repeat unit) | 289.00
*C(=O)Nc1ccc(C(c2ccc(NC(=O)c3ccc4c(c3)C(=O)N(c3ccc(Oc5ccc6ccc(Oc7ccc(N8C(=O)c9ccc(*)cc9C8=O)cc7)cc6c5)cc3)C4=O)cc2)(C(F)(F)F)C(F)(F)F)cc1 (repeat unit) | 292.00
*O[Si](C)(C)O[Si](C)(C)O[Si](C)(C)O[Si](C)(C)O[Si](C)(C)OC(C)CCCCC(*)C (repeat unit) | -104.00
*c1ccc(Oc2ccc(-c3nc4cc(Oc5ccc(NC(=O)c6cc(C(=O)Nc7ccc(Oc8ccc9nc(-c%10ccc([N+](=O)[O-])cc%10)c(*)nc9c8)cc7)cc(N7C(=O)c8ccccc8C7=O)c6)cc5)ccc4nc3-c3ccc([N+](=O)[O-])cc3)cc2)cc1 (repeat unit) | 305.00
*CC(*)(C)C(=O)OCC (repeat unit) [Poly(1-(Diethylamino)ethyl methacrylate)] | 20 ± 27
*Oc1ccc(OC(=O)c2cc(OCCCCCCCCCCCC)c(C(*)=O)cc2OCCCCCCCCCCCC)cc1C (repeat unit) | 112.00
*O[Si](*)(C)CCCCCCCC (repeat unit) | -92.00
*/C=C/c1cc(OCCCCCCCC)c(/C=C/c2ccc(*)c3nsnc23)cc1OCCCCCCCC (repeat unit) | 153.00
*c1ccc2c(c1)C(=O)N(c1ccc(-c3ccc(N4C(=O)c5ccc(C(*)(c6ccccc6)C(F)(F)F)cc5C4=O)cc3C(F)(F)F)c(C(F)(F)F)c1)C2=O (repeat unit) | 280.00
*CNC(=O)CCCCC(=O)NCC1COC(*)CO1 (repeat unit) | 93.00
*CCCC1(C)CCN(C(=O)CCCC(=O)N2CCC(*)(C)CC2)CC1 (repeat unit) | 58.00
*CCCCCOC(=O)NCCCCCCNC(=O)O* (repeat unit) | 33.00
*c1ccc(C(c2ccccc2)(c2ccc(N3C(=O)c4ccc(Oc5ccc6c(c5)C(=O)N(*)C6=O)cc4C3=O)cc2)C(F)(F)F)cc1 (repeat unit) | 293.00
*c1ccc(N2C(=O)c3ccc(Oc4ccc(Sc5ccc(Oc6ccc7c(c6)C(=O)N(*)C7=O)cc5)cc4)cc3C2=O)cc1 (repeat unit) | 238.00

More lines, now with the values ahead:

glass transition temperature [°C] | SMILES
140.00 | *Nc1ccc(Cc2ccc(NC(=O)CCCCCCCC(*)=O)cc2)cc1 (repeat unit)
138.00 | *Oc1ccc(Oc2ccc(S(=O)c3ccc(Oc4ccc(Oc5cccc(*)n5)cc4)cc3)cc2)cc1 (repeat unit)
23.00 | *CC(*)(C)C(=O)OCCCCCCCCCCCOc1ccc(/C=N/c2ccc(C#N)cc2)cc1 (repeat unit)
287.00 | *C(=O)c1ccc2c(c1)C(=O)N(c1cccc(C(=O)Nc3cccc(N4C(=O)c5ccc(*)cc5C4=O)c3)c1)C2=O (repeat unit)
193.00 | */C(=C/c1cc(OC)c(/C=C(/c2ccc(*)cc2)c2ccc(F)cc2)cc1OC)c1ccc(F)cc1 (repeat unit)
137.00 | *CC(*)(C)C(=O)Oc1ccc(C(=O)/C=C/c2ccc(OC)c(OC)c2)cc1 (repeat unit)
45.00 | *CC(*)(C)C(=O)OCCCCCCOc1ccc(C(=O)Oc2ccc(C)cc2)cc1 (repeat unit)
87.00 | */C=C(\C#N)C(=O)OCCCCCCOC(=O)/C(C#N)=C/c1ccc2c(c1)c1cc(*)ccc1n2CCCCCCC (repeat unit)
294.00 | *Oc1ccc(C2(c3ccc(OC(*)=O)cc3)c3cc(OC)ccc3-c3ccc([N+](=O)[O-])cc32)cc1 (repeat unit)
56.80 | *O[Si](*)(C)CCCOc1ccc(C(=O)Oc2ccc(-c3ccc(OC(=O)CCCCC(=O)OC4CC(C)CCC4C(C)C)cc3)cc2)cc1 (repeat unit)
229.00 | *C(=O)c1ccc2c(c1)C(=O)N(c1ccc(/C=C/c3ccc(N4C(=O)c5ccc(*)cc5C4=O)cc3S(=O)(=O)[O][Na])c(S(=O)(=O)[O][Na])c1)C2=O (repeat unit)
255.00 | *c1ccc(CC(=O)Nc2cccc3c(NC(=O)Cc4ccc(-c5sc(*)c(-c6ccccc6)c5-c5ccccc5)cc4)cccc23)cc1 (repeat unit)
107.00 | *C(=O)OCCCCCCOC(=O)c1ccc(NC(=O)c2ccc(N3C(=O)c4ccc(*)cc4C3=O)cc2)cc1 (repeat unit)
269.00 | *c1ccc(C(c2ccccc2)c2ccc(N3C(=O)c4ccc(Oc5ccc6c(c5)C(=O)N(*)C6=O)cc4C3=O)cc2)cc1 (repeat unit)
155.00 | *CCOCCOc1ccc(NC(=O)c2cccc(C(=O)Nc3ccc(O*)cc3)c2)cc1 (repeat unit)
27.80 | *CCCCCCCCOc1ccc(C(c2ccc(O*)cc2)(C(F)(F)F)C(F)(F)F)cc1 (repeat unit)
168.00 | *Oc1ccc(-c2ccc(OC(=O)c3ccc(-c4ccc(C(*)=O)cc4)cc3-c3ccccc3)cc2)cc1 (repeat unit)
50.00 | *Oc1ccc(CC(NC(=O)CCc2ccc(OC(=O)CCCCC(*)=O)cc2)C(=O)OC(C)CC)cc1 (repeat unit)
99.00 | *CC(O)CN(*)c1ccc(/N=N/c2ccc(C(=O)O)cc2)cc1 (repeat unit)

glass transition temperature [°C] | SMILES
319.00 | *Nc1ccc(-c2ccc(NC(=O)c3cc(C(*)=O)cc(S(=O)(=O)c4ccccc4)c3)cc2)cc1 (repeat unit)
215.00 | *Oc1ccc(Oc2ccc(OC(=O)c3ccc(C(c4ccc(C(*)=O)cc4)(C(F)(F)F)C(F)(F)F)cc3)cc2)cc1 (repeat unit)
272.00 | *c1ccc(NC(=O)c2ccc(C(=O)Nc3ccc(-c4nnc(*)o4)cc3)c(Oc3ccccc3)c2)cc1 (repeat unit)
269.00 ± 14 | *c1ccc(Oc2ccc(N3C(=O)c4ccc(Oc5ccc6c(c5)C(=O)N(*)C6=O)cc4C3=O)cc2)cc1 (repeat unit)
230.00 | *c1ccc(Oc2ccc(C(=O)c3cccc(C(=O)c4ccc(Oc5ccc(-c6nc(-c7ccccc7)[nH]c6*)cc5)cc4)c3)cc2)cc1 (repeat unit)
303.50 | *c1ccc(Oc2ccc(-n3c(=O)c4c(Oc5ccc(OC)cc5)c5c(=O)n(*)c(=O)c5c(Oc5ccc(OC)cc5)c4c3=O)cc2)cc1 (repeat unit)
230.00 | *Oc1ccc(C(C)(C)c2ccc(OC(=O)c3ccc(C(C)(C)c4ccc(C(*)=O)cc4)cc3)cc2)cc1 (repeat unit)
293.8 ± 1.8 | *c1ccc(Oc2ccc(N3C(=O)c4cccc(Oc5cccc6c5C(=O)N(*)C6=O)c4C3=O)cc2)cc1 (repeat unit)
237.00 | *c1cc(OCCCC)cc(N2C(=O)c3ccc(Oc4ccc5c(c4)C(=O)N(*)C5=O)cc3C2=O)c1 (repeat unit)
78.00 | *CCCCCCOc1ccc(/C=C/c2ccc(O*)c3ccccc23)cc1 (repeat unit)
63.00 | */C=C/c1ccc(/C=C/[Si](C)(C)c2ccc([Si](*)(C)C)cc2)cc1 (repeat unit)
54.50 | *Oc1ccc(CC(NC(=O)CCc2ccc(OC(=O)CCCCC(*)=O)cc2)C(=O)OCc2ccccc2)cc1 (repeat unit)
70.00 | *CC(*)C(=O)OCCOc1ccc(C(=O)Oc2ccc(OC)cc2)cc1 (repeat unit)
259.50 | *c1ccc(Cc2ccc(N3C(=O)N(c4ccc(Cc5ccc(N6C(=O)N(*)C(C)(C)C6=O)cc5)cc4)C(=O)C3(C)C)cc2)cc1 (repeat unit)
325.00 | *C(=O)Nc1cccc(NC(=O)c2ccc(-c3nc4cc(*)ccc4[nH]3)cc2)c1 (repeat unit)
265.00 | *Oc1ccc(NC(=O)/C=C/C(=O)NNC(=O)/C=C/C(=O)Nc2ccc(OC(=O)/C=C/C(=O)NNC(=O)/C=C/C(*)=O)cc2)cc1 (repeat unit)
20.00 | *CCOCCOCCOC(=O)c1ccc(-c2ccc(C(=O)O*)cc2)cc1 (repeat unit)
275.00 | *Oc1ccc(C2(c3ccc(OC(=O)c4ccc(C(*)=O)cc4)cc3)CCC3CCCCC3C2)cc1 (repeat unit)
